Experiments:
ATR/ATRIP = ATR/ATRIP (Homo sapiens (Human), UniProt Q13535); experiment: ATR/ATRIP kinase assay (TR-FRET, p53 Ser15 phosphorylation); format: biochemical; settings: 0.5 μM ATP, 50 nM p53
Outline: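 Full-length human ATR/ATRIP co-expressed in mammalian cells (typically 0.3 nM) preincubated with compound 15 min at 22° C, then 50 nM cmyc-p53 and 0.5 μM ATP added for typically 25 min; HEPES pH 8.0 with Mg2+/Mn2+. p53 Ser15 phosphorylation read by HTRF (665/615 ratio); IC50 by nonlinear regression.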

[1] = system: phosphorylation of Chk1 (Ser 345) in HT29 colon adenocarcinoma cells; experiment: pCHK1 cellular assay; format: cell-based; settings: Homo sapiens, HT-29, hydroxyurea 3 mM, 4 h
Outline: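 HT29 cells plated ≥20 h, then compound (1 nM–30 μM final) with hydroxyurea (3 mM final) added together for 4 h at 37 °C. After MeOH/Triton fixation-permeabilisation, anti-pChk1 immunostaining plus nuclear stain; nuclear pChk1 imaged by confocal high content reader, reported as % positive nuclei.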

[2] = biological target: Kv11.1 (hERG) ion channel (Homo sapiens (Human), UniProt Q12809); experiment: Kv11.1 (hERG) ion channel activity, whole cell patch clamp in HEK293; format: cell-based; settings: for Ki: heading: hERG Ki, HEK293 cells stably expressing hERG, patch clamp
Sequence of Kv11.1 (hERG) ion channel (Q12809 whole entry): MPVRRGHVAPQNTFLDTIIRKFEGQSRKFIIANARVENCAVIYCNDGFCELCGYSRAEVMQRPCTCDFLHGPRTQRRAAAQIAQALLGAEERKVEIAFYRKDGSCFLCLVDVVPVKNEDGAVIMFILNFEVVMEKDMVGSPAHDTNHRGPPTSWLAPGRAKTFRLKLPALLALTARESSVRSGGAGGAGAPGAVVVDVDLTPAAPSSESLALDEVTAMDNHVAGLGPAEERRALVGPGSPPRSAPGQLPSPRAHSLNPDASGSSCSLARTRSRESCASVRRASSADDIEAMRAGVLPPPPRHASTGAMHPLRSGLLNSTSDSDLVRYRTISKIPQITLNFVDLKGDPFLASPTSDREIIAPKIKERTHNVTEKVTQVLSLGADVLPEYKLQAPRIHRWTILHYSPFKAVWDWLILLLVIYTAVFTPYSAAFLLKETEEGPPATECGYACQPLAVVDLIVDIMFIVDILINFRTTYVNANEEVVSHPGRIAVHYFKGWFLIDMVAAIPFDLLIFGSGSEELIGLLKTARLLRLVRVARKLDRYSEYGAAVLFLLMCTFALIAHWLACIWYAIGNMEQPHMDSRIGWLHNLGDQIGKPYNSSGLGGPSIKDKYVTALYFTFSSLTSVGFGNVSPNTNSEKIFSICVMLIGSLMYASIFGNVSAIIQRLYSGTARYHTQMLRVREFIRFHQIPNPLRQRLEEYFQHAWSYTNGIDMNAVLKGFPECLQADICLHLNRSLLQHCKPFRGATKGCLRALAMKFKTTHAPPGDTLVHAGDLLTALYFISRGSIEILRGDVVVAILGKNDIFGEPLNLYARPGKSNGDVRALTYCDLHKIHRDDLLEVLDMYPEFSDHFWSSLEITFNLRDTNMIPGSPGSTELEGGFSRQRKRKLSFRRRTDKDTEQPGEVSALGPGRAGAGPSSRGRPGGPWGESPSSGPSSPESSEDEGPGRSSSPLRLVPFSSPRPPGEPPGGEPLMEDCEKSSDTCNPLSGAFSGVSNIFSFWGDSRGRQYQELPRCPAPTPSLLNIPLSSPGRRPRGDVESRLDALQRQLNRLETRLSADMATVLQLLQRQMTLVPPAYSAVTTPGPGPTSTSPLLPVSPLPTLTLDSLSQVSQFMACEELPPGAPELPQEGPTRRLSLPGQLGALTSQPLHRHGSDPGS
Method: Kv11.1 (hERG) Ion Channel Activity
In this assay, a potential in vitro effect of test compounds on the Kv11.1 (hERG) ion channel current is investigated which mediates the rapidly activating, delayed rectifier cardiac potassium current (IKr). The assay is performed with a stable Kv11.1 (hERG) transfected human embryonic kidney cell line (HEK293) by whole cell patch clamp technique carried out at room temperature.
The Kv11.1 (hERG) ion channel blocker quinidine is used as reference compound. The effects of the test compounds and quinidine are normalized to the corresponding vehicle control. The whole cell recordings are carried out with an automated patch clamp device Patchliner™, Nanion Technologies, Munich). Hereby the Patch Clamp measurements run on silicate-coated chips with a hole of a defined diameter. Solutions, cell suspension and compounds are applied by a Teflon-laminated pipette needle through microfluidic silicate-laminated channels. Commercial patch clamp amplifiers (EPC10, HEKA Elektronik Dr. Schulze GmbH, Germany) are used for the patch clamp recordings. HEK293 cells stably expressing the hERG gene are held at −80 mV. Steady-state inhibition of Kv11.1 (hERG) potassium current due to test/reference compound application is measured using a pulse pattern with fixed amplitudes: 51 ms/−80 mV, 500 ms/+40 mV, 500 ms/−40 mV, 200 ms/−80 mV. The hERG-specific voltage protocol is repeated at 10 s intervals. The leak current is subtracted by a P4 leak subtraction. Cells are resuspended in extracellular patch clamp solution (EC) and applied into the chip. After trapping the cell, the EC is exchanged by seal enhancer solution (SE) to improve the sealing procedure. When the whole cell configuration is attained, seal enhancer is washed out by the application of EC. The recording is started in EC for 1.5 min. Afterwards DMSO (vehicle control, 0.1% DMSO) is applied and the control current is measured for 3 min. Following control steady-state current, test compound is applied twice at the same concentration and the tail current is measured for 3.5 min each. For the determination of a concentration-relationship, the test compound is applied as a cumulative concentration-response curve and each concentration is measured for 5 min. The reference compound quinidine is treated in the same way. The effect on Kv11.1 (hERG) ion channel activity is judged from the tail current amplitude monitored at −40 mV (current of interest, COI). Results are calculated from the last recorded current traces. Changes in Kv11.1 (hERG) ion channel activity between control value, defined as 100% Kv11.1 (hERG) ion channel activity, application of test compound and application of quinidine is reported as percent change of control value of COI. An aliquot of test compound is collected for concentration verification during the recording. The sample is immediately measured by HPLC and the final compound concentration within the assay is calculated according to a calibration curve.

Sequence of ATR/ATRIP (Q13535 whole entry): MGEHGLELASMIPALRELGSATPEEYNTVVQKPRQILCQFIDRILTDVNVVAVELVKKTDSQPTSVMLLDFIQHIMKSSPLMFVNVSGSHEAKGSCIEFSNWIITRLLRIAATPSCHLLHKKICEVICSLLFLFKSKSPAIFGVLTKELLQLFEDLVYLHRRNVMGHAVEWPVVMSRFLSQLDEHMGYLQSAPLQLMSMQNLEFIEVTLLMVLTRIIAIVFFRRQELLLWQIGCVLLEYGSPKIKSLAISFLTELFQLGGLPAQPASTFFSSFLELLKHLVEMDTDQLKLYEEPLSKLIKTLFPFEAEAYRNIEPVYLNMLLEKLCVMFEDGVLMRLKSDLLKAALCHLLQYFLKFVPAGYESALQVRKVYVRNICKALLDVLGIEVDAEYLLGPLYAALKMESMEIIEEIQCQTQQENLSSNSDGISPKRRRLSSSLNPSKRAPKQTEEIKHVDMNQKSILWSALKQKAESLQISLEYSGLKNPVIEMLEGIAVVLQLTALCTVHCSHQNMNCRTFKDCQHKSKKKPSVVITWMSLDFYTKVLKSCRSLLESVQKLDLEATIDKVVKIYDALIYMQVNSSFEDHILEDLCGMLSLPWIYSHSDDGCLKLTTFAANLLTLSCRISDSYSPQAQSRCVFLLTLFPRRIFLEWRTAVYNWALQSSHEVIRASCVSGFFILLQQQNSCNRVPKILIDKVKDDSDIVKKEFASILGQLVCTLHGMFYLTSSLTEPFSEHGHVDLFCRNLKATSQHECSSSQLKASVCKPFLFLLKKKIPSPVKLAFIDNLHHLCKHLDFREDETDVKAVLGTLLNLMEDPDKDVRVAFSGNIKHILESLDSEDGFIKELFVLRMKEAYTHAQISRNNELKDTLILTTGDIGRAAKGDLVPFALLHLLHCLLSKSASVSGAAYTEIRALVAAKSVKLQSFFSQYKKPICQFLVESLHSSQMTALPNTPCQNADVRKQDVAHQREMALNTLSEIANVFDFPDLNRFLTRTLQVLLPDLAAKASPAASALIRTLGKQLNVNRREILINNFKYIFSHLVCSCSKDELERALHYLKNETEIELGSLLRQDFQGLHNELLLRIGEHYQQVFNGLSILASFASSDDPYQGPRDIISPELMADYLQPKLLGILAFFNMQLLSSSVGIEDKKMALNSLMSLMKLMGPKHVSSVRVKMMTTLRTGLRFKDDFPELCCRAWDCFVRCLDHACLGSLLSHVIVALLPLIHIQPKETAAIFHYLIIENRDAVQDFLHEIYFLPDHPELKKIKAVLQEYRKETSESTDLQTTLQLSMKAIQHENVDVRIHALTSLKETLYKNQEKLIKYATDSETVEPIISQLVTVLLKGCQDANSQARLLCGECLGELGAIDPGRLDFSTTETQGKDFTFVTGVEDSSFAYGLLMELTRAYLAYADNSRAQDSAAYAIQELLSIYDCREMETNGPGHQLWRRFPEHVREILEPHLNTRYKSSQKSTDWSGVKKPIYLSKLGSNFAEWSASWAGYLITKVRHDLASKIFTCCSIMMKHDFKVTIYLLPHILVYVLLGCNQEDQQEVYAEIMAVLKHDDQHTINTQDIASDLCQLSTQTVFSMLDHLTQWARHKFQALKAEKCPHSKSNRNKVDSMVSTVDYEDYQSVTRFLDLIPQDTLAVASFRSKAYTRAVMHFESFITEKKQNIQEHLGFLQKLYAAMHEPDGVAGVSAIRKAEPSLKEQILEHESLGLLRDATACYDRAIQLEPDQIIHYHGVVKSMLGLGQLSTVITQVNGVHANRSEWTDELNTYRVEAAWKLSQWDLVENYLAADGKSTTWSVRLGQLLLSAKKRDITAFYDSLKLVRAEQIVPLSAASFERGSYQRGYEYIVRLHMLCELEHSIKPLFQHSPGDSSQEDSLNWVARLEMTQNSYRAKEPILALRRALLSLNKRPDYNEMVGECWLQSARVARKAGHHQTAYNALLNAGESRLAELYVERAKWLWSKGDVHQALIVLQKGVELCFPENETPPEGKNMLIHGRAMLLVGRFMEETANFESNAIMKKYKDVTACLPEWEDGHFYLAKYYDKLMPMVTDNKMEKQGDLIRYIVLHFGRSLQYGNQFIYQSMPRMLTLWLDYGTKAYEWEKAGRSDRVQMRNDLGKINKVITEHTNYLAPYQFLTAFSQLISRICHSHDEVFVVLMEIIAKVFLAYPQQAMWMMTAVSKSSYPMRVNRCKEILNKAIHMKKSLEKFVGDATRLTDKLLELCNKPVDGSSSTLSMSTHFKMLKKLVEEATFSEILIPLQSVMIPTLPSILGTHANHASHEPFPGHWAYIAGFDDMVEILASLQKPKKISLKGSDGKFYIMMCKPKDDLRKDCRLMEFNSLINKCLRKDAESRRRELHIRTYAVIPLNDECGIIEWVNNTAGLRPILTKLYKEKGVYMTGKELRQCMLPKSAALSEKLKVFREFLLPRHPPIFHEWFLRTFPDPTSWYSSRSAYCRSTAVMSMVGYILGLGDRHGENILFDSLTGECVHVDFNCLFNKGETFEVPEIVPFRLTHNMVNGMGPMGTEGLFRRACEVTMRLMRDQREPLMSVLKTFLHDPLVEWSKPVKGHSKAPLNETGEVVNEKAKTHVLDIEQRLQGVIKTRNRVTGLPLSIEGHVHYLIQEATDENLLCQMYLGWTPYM
Sequence of ATR/ATRIP (Q8WXE1 whole entry partner): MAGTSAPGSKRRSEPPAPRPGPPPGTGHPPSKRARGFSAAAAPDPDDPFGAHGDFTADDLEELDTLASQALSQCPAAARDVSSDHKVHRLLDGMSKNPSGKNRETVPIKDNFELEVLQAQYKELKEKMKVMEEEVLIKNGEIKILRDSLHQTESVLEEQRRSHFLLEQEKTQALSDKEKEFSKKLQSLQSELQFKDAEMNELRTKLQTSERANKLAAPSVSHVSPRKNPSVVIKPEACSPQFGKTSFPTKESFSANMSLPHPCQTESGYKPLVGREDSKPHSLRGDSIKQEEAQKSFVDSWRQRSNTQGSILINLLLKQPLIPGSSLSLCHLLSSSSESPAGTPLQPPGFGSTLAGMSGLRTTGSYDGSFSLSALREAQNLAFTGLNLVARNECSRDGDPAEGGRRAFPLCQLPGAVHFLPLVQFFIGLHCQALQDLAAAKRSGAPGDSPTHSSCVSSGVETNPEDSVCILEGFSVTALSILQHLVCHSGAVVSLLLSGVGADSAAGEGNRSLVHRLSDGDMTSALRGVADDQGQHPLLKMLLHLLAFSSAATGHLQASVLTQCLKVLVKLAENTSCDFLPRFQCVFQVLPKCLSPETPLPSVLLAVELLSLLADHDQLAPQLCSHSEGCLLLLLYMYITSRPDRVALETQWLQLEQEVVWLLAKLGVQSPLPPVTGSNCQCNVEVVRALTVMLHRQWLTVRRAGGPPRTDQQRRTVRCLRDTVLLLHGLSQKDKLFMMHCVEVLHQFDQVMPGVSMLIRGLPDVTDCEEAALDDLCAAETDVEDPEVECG

| Structure (SMILES) | IC50 (ATR/ATRIP) [nM] | IC50 [1] [nM] | hERG % effect @ conc ([2]; @ 10 μM) [%] | Ki [2] [nM] | hERG % effect @ conc ([2]; @ 30 μM) [%] |
| --- | --- | --- | --- | --- | --- |
| Cc1ccccc1-c1cc(N2CCOC[C@H]2C)nc2c(-c3cc[nH]n3)n[nH]c12 [Compound 35, (3R)-3-Methyl-4-[7-(2-methylphenyl)-3-(1H-pyrazol-3-yl)-1H-pyrazolo[4,3-b]pyridin-5-yl]morpholine] | 0.5 | 10 to 100 | −23 | > 10000 | – |
| C[C@@H]1COCCN1c1cc(-c2ccnn2CCF)c2c(n1)c(-c1cc[nH]n1)nn2C [Compound 36, 7-[2-(2-Fluoro-ethyl)-2H-pyrazol-3-yl]-1-methyl-5-((R)-3-methyl-morpholin-4-yl)-3-(1H-pyrazol-3-yl)-1H-pyrazolo[4,3-b]pyridine] | 0.6 | 10 to 100 | −9 | > 10000 | – |
| C[C@@H]1COCCN1c1ccc2c(n1)c(-c1ccn[nH]1)nn2C [Compound 40, (3R)-3-Methyl-4-[1-methyl-3-(1H-pyrazol-5-yl)-1H-pyrazolo[4,3-b]pyridin-5-yl]morpholine] | 50.6 | 100 to 1000 | 9 | > 10000 | – |
| C[C@@H]1COCCN1c1cc(-c2cncn2C)c2c(n1)c(-c1cc[nH]n1)nn2C [Compound 42, 1-Methyl-7-(3-methyl-3H-imidazol-4-yl)-5-((R)-3-methyl-morpholin-4-yl)-3-(1H-pyrazol-3-yl)-1H-pyrazolo[4,3-b]pyridine] | 0.3 | < 10 | – | > 30000 | −26 |
| C[C@@H]1COCCN1c1cc(-c2cccc(C#N)c2)c2c(n1)c(-c1cc[nH]n1)nn2C [Compound 48, 3-{1-Methyl-5-[(3R)-3-methylmorpholin-4-yl]-3-(1H-pyrazol-3-yl)-1H-pyrazolo[4,3-b]pyridin-7-yl}benzonitrile] | 2 | 10 to 100 | −32 | > 10000 | – |
| Cc1ccccc1-c1cc(N2CCOC[C@H]2C)nc2c(-c3ccn[nH]3)nn(C)c12 [Compound 49, (3R)-3-Methyl-4-[1-methyl-7-(2-methylphenyl)-3-(1H-pyrazol-5-yl)-1H-pyrazolo[4,3-b]pyridin-5-yl]morpholine] | 1.8 | 10 to 100 | −18 | > 10000 | – |
| Cc1cc(S(C)(=O)=O)ccc1-c1cc(N2CCOC[C@H]2C)nc2c(-c3cc[nH]n3)nn(C)c12 [Compound 50, (3R)-4-[7-(4-Methanesulfonyl-2-methylphenyl)-1-methyl-3-(1H-pyrazol-3-yl)-1H-pyrazolo[4,3-b]pyridin-5-yl]-3-methylmorpholine] | 1.3 | < 10 | −17 | > 10000 | – |

Further lines, with some results ahead:

| IC50 (ATR/ATRIP) [nM] | IC50 [1] [nM] | Structure (SMILES) | hERG % effect @ conc ([2]; @ 10 μM) [%] | Ki [2] [nM] | hERG % effect @ conc ([2]; @ 30 μM) [%] |
| --- | --- | --- | --- | --- | --- |
| 2.2 | 10 to 100 | C[C@@H]1COCCN1c1cc(C2=CCOCC2)c2c(n1)c(-c1cc[nH]n1)nn2C [Compound 54, (3R)-4-[7-(3,6-Dihydro-2H-pyran-4-yl)-1-methyl-3-(1H-pyrazol-3-yl)-1H-pyrazolo[4,3-b]pyridin-5-yl]-3-methylmorpholine] | −2 | > 10000 | – |
| 0.7 | 10 to 100 | C[C@@H]1COCCN1c1cc(C2CCOCC2)c2c(n1)c(-c1ccn[nH]1)nn2C [Compound 55, 1-Methyl-5-((R)-3-methyl-morpholin-4-yl)-3-(2H-pyrazol-3-yl)-7-(tetrahydro-pyran-4-yl)-1H-pyrazolo[4,3-b]pyridine] | −14 | > 10000 | – |
| 0.6 | 10 to 100 | C[C@@H]1COCCN1c1cc(-c2ccnn2C)c2c(n1)c(-c1cc[nH]n1)nn2C [Compound 61, (3R)-3-Methyl-4-[1-methyl-7-(1-methyl-1H-pyrazol-5-yl)-3-(1H-pyrazol-3-yl)-1H-pyrazolo[4,3-b]pyridin-5-yl]morpholine] | – | > 30000 | −12 |
| 0.8 | 10 to 100 | C[C@@H]1COCCN1c1cc(C2CCCOC2)c2c(n1)c(-c1ccn[nH]1)nn2C (stereo partly drawn) [Compound 67, 1-Methyl-5-((R)-3-methyl-morpholin-4-yl)-3-(2H-pyrazol-3-yl)-7-(tetrahydro-pyran-3-yl)-1H-pyrazolo[4,3-b]pyridine] | −12 | > 10000 | – |
| 2.2 | 10 to 100 | C[C@@H]1COCCN1c1cc(C2CCOC2)c2c(n1)c(-c1ccn[nH]1)nn2C (stereo partly drawn) [Compound 70, 1-Methyl-5-((R)-3-methyl-morpholin-4-yl)-3-(2H-pyrazol-3-yl)-7-(tetrahydro-furan-3-yl)-1H-pyrazolo[4,3-b]pyridine] | −20 | > 10000 | – |
